In patent US8685933B2, “Casein-derived peptides having anxiolytic activity” (Universite de Lorraine, priority 2006, dated 2014):
Where no end group is shown, it is not given here.

What was measured:
Type in all cases: in vivo, rat
[1] = tested on: Wistar rats; assay: light/dark box test; settings: for time spent in the aversive non-familiar compartment, carrier compared with treated animals: 10 min observation, p<0.05
Description: The light/dark tests are based on the innate aversion of rodents for intensively illuminated environments and on their spontaneous exploratory behavior in response to slight stress factors such as a new environment and light. The device of the light/dark box allows the study of the exploratory behavior of the rodent towards a non-familiar aversive compartment (intensively illuminated with white light) after habituation in a non-aversive compartment (dark) which then becomes familiar [BOURIN and HASCOËT, 2008 (18)]. Conventional anxiolytics may be detected by using this device.
The light/dark box measures 65×49×35 cm (h×w×l) and is separated into two identical compartments by a plate perforated with three doors of 8×8 cm. The floor is covered with sawdust. Each rat is placed for 24 h in the rear compartment of the box, the doors for communicating with the front compartment being inaccessible. The rear compartment thus becomes the familiar compartment. The animal is fed and hydrated ad libitum. On the day of the test, the rat after treatment is replaced in the familiar compartment and the doors communicating with the front compartment (non-familiar) are made accessible so that the animal may freely explore the environment. The non-familiar compartment is made aversive by white light illumination with an intensity of 1,500 lux. The animals are observed for 10 min and the time spent in each of the compartments is measured.
The animals receive their respective treatment via an intra-peritoneal route, half an hour before opening the communication between the familiar compartment and the non-familiar compartment.

[2] = tested on: Wistar rats; assay: elevated plus maze test; settings: for number of entries in the open arms, carrier compared with treated animals / percentage of entries into the open arms, carrier compared with treated animals / time spent in the open arms, carrier compared with treated animals: p<0.05
Description: The elevated plus maze test allows the measurement of the density of exploratory behaviour in a new aversive situation [PELLOW et al., 1985 (17)]. The experiment exploits the conflict in rodents, between the fear of open spaces and the desire of exploring a new environment. The rat, placed at the centre of the device is forced to explore its environment. The open arms form an anxiogenic environment, whereas this is not the case of the closed arms. The number of entries in the whole of the arms, that relating to the open arms, the closed arms, the time spent in the open arms, the entry latency in the first open arm, form parameters which reflect the degree of anxiety of the animal.
The elevated plus maze built in wood consists of four branches at 90° from each other. The two open branches (45×10 cm) and the two closed branches (45×10 cm; surrounded with wooden plates over a height of 40 cm) are positioned facing each other. The central square measures 10×10 cm. The open branches are illuminated by white light with an intensity of 500 lux. The elevated plus maze is located at 50 cm from the ground.
The observations take place between 9.0 am and 11.0 am in order to minimize the influence of the circadian rhythm. […] each passage in the elevated plus maze, the animal is placed for 10 min in an open field in order to stimulate its exploratory behavior. It is then placed in the central square of the elevated plus maze and observed for 5 min. The plus maze is washed with 95% (v/v) ethanol between two passages in order to eliminate the odors.
The animals receive their respective treatment via an intra-peritoneal route, half an hour before passing into the open field.

[3] = tested on: Wistar rats; assay: conditioned defensive burial test
Description: The conditioned defensive burial test was used for measuring the anxiety level in rats. Developed by PINEL and TREIT (16), this test is based on the innate tendency of rodents, placed in a familiar environment of burying any object perceived as being dangerous by projecting on the latter the litter present at ground level. The expression of the burial behavior by the animal is representative of its anxiety level: more it is anxious, more it buries.
The test takes place in a Plexiglas box (44×28×18 cm), one of the walls of which has an orifice through which an electrode (7×2×0.5 cm) may be inserted. The bottom of the box is covered with a thick layer of sawdust (5 cm). The electrode is connected to a generator delivering a 1 mA intensity current when it is actuated by the experimenter. The whole of the experimentation is carried out in low intensity light.
The experiment consists of habituation phase of 2 days followed by a test phase. During the habituation phase, the rats are placed 20 min daily in the test box, without the electrode, in order to accustom them to the experimental device. During the test phase, each rat is individually placed in the box which contains the electrode. When the animal touches the electrode in the first time, it receives a single shock. From this instant, its behavior is filmed for 5 min and behavioral variables are quantified.
The total burial time and the occurrence latency of the burial behavior after the shock are the most significant variables. A certain number of behaviors oriented towards the electrode and correlated with the anxiety level of the rat (approaches, escapes, contacts) are also counted. Finally, indicators of the activity level of the rat such as the number of upright standing postures are reported.
The animals receive their respective treatments, via an intra-peritoneal route, half an hour before passing into the conditioned defensive burial test.

[4] = fragment 0.7 mg/kg vs diazepam 1 mg/kg intra-peritoneal
[5] = fragment 91-97 0.7 mg/kg intra-peritoneal
[6] = diazepam 1 mg/kg intra-peritoneal

| Compound | time spent in the non-familiar compartment, fragment 91-97 compared with diazepam [1, 4] | time spent in the aversive non-familiar compartment, carrier compared with treated animals [1, 5] | elevated plus maze open-arm parameters, fragment 91-97 compared with diazepam [2, 4] | number of entries in the open arms, carrier compared with treated animals [2, 5] | percentage of entries into the open arms, carrier compared with treated animals [2, 5] | time spent in the open arms, carrier compared with treated animals [2, 5] | anxiolytic action in conditioned defensive burial ([3]; 0.5 mg/kg intra-peritoneal) | burial duration of an aversive probe after a single 1 mA shock, NaCl 0.9% control compared with treated animals ([3]; 0.5 mg/kg intra-peritoneal, half an hour before test, Mann-Whitney: diazepam p<0.02, fragment 91-97 p<0.04, 5 min observation) | burial duration, fragment 91-97 compared with diazepam ([3]; both 0.5 mg/kg intra-peritoneal) | time spent in the aversive non-familiar compartment, carrier compared with treated animals [1, 6] | number of entries in the open arms, carrier compared with treated animals [2, 6] | percentage of entries into the open arms, carrier compared with treated animals [2, 6] | time spent in the open arms, carrier compared with treated animals [2, 6] |
| --- | --- | --- | --- | --- | --- | --- | --- | --- | --- | --- | --- | --- | --- |
| YLGYLEQ [fragment 91-97 of αs1 casein, Heptapeptide corresponding to the positions 91-97 of αs1 casein] | No significant difference | significantly less | No significant difference | significantly less | significantly less | significantly less | has an anxiolytic action in Wistar rats which acts in the same direction as that of diazepam | significantly larger | No significant difference | – | – | – | – |
| CN1C(=O)CN=C(c2ccccc2)c2cc(Cl)ccc21 [diazepam, reference compound] | – | – | – | – | – | – | – | – | – | significantly less | significantly less | significantly less | significantly less |
